ChEMBL document CHEMBL1151372, “Isoiguesterin, a new antileukemic bisnortriterpene from Salacia madagascariensis” (1981)
In brackets after ≈: the same amount, converted by molar mass.

Experiments:
Assay type in all cases: functional
P388 [1] = assay: In vivo antitumor activity against mouse P388 cells at 1 mg/kg relative to control
P388 [2] = assay: In vivo antitumor activity against mouse P388 cells at 0.75 mg/kg relative to control
KB = assay: Cytotoxicity against human KB cells; conditions: read-out: ED50 (the source's name)

Compound: C=C1CC[C@]2(C)CC[C@]3(C)C4=CC=C5C(=CC(=O)C(O)=C5C)[C@]4(C)CC[C@@]3(C)[C@@H]2C1 [ISOIGUESTERIN]
- T/C (P388 [1]): 147%
- T/C (P388 [2]): 125%
- EC50 (KB): 0.24 µg/mL (≈ 0.593 µM)
